In ChEMBL document CHEMBL1165876, “Novel bis-phenanthridine derivatives with easily tunable linkers, study of their interactions with DNA and screening of antiproliferative activity” (Eur J Med Chem, 2010):
Values after ≈ are worked out from the molar mass of the structure shown.

Columns and labels:
Calf thymus DNA [1] = assay: Binding affinity to calf thymus DNA assessed as fluorescence quenching at pH 5 by fluorimetric titration; format: nucleic-acid assay; conditions: Bos taurus
Calf thymus DNA [2] = assay: Binding affinity to calf thymus DNA assessed as change in melting temperature in citric acid/NaOH buffer ayt pH 5 at [compound]/[DNA] ratio of 0.2 by tangent method; format: nucleic-acid assay; conditions: Bos taurus
[3] = Solubility in water; format: physicochemical
Calf thymus DNA [4] = assay: Binding affinity to calf thymus DNA assessed as change in melting temperature in citric acid/NaOH buffer ayt pH 5 at [compound]/[DNA] ratio of 0.3 by tangent method; format: nucleic-acid assay; conditions: Bos taurus
Calf thymus DNA [5] = assay: Binding affinity to calf thymus DNA assessed as change in melting temperature in citric acid/NaOH buffer ayt pH 5 at [compound]/[DNA] ratio of 0.1 by tangent method; format: nucleic-acid assay; conditions: Bos taurus
Calf thymus DNA [6] = assay: Binding affinity to calf thymus DNA assessed as fluorescence quenching at pH 7 by fluorimetric titration; format: nucleic-acid assay; conditions: Bos taurus
MIA PaCa-2 = assay: Cytotoxicity against human MIAPaCa2 cells after 72 hrs by MTT assay; format: functional, cell-based; conditions: MIA PaCa-2, 72 h
MCF7 = assay: Cytotoxicity against human MCF7 cells after 72 hrs by MTT assay; format: functional, cell-based; conditions: MCF7, 72 h
HeLa = assay: Cytotoxicity against human HeLa cells after 72 hrs by MTT assay; format: functional, cell-based
NCI-H460 = assay: Cytotoxicity against human H460 cells after 72 hrs by MTT assay; format: functional, cell-based; conditions: NCI-H460, 72 h
SW-620 = assay: Cytotoxicity against human SW620 cells after 72 hrs by MTT assay; format: functional, cell-based; conditions: SW-620, 72 h

Row | Compound | log Ks (Calf thymus DNA [1]) | ΔTm (Calf thymus DNA [2]) | solubility [3] | ΔTm (Calf thymus DNA [4]) | ΔTm (Calf thymus DNA [5]) | log Ks (Calf thymus DNA [6]) | IC50 (MIA PaCa-2) | IC50 (MCF7) | IC50 (HeLa) | IC50 (NCI-H460) | IC50 (SW-620)
1 | Cc1nc2ccccc2c2ccc(C[C@H](NC(=O)CN)C(=O)O)cc12 | 5.5 | 8.1 °C | 1000 µM (≈ 337 µg/mL) | 11.1 °C | 6.5 °C | 4.7 | – | – | – | – | –
2 | Cc1nc2ccccc2c2ccc(C[C@H](N)C(=O)O)cc12 | – | – | 1000 µM (≈ 280 µg/mL) | 4 °C | – | – | > 100 µM | > 100 µM | > 100 µM | > 100 µM | > 100 µM
3 | Cc1nc2ccccc2c2ccc(C[C@H](NC(=O)CNC(=O)[C@@H](N)Cc3ccc4c(c3)c(C)nc3ccccc34)C(=O)O)cc12 | – | 16.5 °C | 1000 µM (≈ 600 µg/mL) | 18.4 °C | 14.3 °C | – | > 100 µM | > 100 µM | > 100 µM | > 100 µM | > 100 µM
4 | Cc1nc2ccccc2c2ccc(C[C@H](NC(=O)[C@@H](N)Cc3ccc4c(c3)c(C)nc3ccccc34)C(=O)O)cc12 | 6.7 | 11 °C | 1000 µM (≈ 543 µg/mL) | 11.3 °C | 8.6 °C | – | – | – | – | – | –
